Experimental data published in patent US20230104671A1, “METHODS AND COMPOSITIONS FOR TREATING CARDIOMYOPATHY AND HEART FAILURE” (Ann and Robert H. Lurie Children's Hospital of Chicago, priority 2021, published 2023).

Test system: Egln1^Tie2Cre mice
Assay: C76 treatment of Egln1Tie2Cre mice: LV hypertrophy and cardiac fibrosis
Format: in vivo
Details: 3 week-old Egln1^Tie2Cre mice treated for 11 weeks
Method: Egln1^Tie2Cre mice, Egln1/Hif1a^Tie2Cre and Egln1/Hif2a^Tie2Cre double knockout mice were generated as described previously^16. Egln1^EndoCreERT2 mice were generated by crossing Egln1 floxed mice with EndoSCL-CreERT2 transgenic mice expressing the tamoxifen-inducible Cre recombinase under the control of the 5′ endothelial enhancer of the stem cell leukemia locus^23. At 8 weeks of age, Egln1^EndoCreERT2 and Egln1^f/f mice were treated with 2 mg tamoxifen intraperitoneally for 5 days to induced Egln1 deletion only in ECs. Mice were scarified at the age of ˜9 months. Both male and female mice were used in these studies. The use of animals was in compliance with the guidelines of the Animal Care and Use Committee of the Northwestern University and of the University of Arizona.
For Wheat Germ Agglutinin (WGA) staining, WGA conjugated with FITC or WGA conjugated with Alexa 647 were stained with cryosectioned slides at room temple for 10 mins.
For histological assessment, hearts were harvested and washed with PBS, followed by fixation in 4% formalin and dehydrated in 70% ethanol. After paraffin processing, the tissues were cut into semi-thin […] thick sections. Sections were stained with H & E staining or Masson's trichrome kit as a service of charge at Core Facility.
To assess the therapeutic potential of HIF-2α inhibition for cardiomyopathy, we treated 3 week-old Egln1^Tie2Cre mice with the HIF-2α translation inhibitor C76^31,35 for 11 weeks.

## COC(=O)c1sccc1N/N=C(\C#N)S(C)(=O)=O [C76, methyl 3-[(2E)-2-[cyano(methylsulfonyl)methylidene]hydrazinyl]thiophene-2-carboxylate]
FIGS. 10B and 10C
  cardiomyocyte surface area assessed by WGA staining: significantly attenuated
FIGS. 10D and 10E
  perivascular fibrosis by trichrome staining: significantly attenuated
Compared to vehicle treatment, cardiac dissection (FIG. 10A)
  LV/BW ratio (LV hypertrophy): decreased
